The subject of test [1] is Cavia porcellus. In words: Antagonist activity in guinea pig ureter assessed as inhibition of capsaicin-induced plasma extravasation at 1 mg/kg, po. In kind it is functional.
The next test has as its target Substance-P receptor (Homo sapiens, UniProt P25103). Kind of test: Displacement of [3H]substance P from NK1 human receptor expressed in IM9 cells. In kind it is cell-based, IM-9.
For test [2], the species on record is Cavia porcellus. In words: Antagonist activity in guinea pig ureter assessed as inhibition of capsaicin-induced plasma extravasation. In kind it is functional.
The test system of test [3] is Cavia porcellus. Kind of test: Antagonist activity in guinea pig ureter assessed as inhibition of capsaicin-induced plasma extravasation at 10 mg/kg, po. In kind it is functional.
Test [4] concerns the target Voltage-gated L-type calcium channel (Rattus norvegicus, UniProt P22002+Q02485+P27732). In words: Displacement of [3H]desmethoxyverapamil from verapamil binding site of L type calcium channel in rat heart. (In general: Loss of bound radioactivity is the signal in a displacement assay; it reports binding, not function.)

Where only a bound is given, the exact number is not on record here.

Sequence of Substance-P receptor (P25103 whole entry): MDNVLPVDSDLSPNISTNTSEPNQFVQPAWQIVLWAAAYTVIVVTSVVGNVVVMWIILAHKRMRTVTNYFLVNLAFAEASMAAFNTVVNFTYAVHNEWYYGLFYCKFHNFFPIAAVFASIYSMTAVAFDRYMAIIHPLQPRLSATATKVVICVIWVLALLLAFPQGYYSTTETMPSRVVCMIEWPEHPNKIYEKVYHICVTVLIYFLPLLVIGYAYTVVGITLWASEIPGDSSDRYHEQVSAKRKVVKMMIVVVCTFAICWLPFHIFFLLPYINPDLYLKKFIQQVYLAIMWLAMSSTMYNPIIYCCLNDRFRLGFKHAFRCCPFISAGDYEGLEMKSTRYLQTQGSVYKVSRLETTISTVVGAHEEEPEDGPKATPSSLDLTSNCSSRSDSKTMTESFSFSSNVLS

On to `COc1ccc(OC(F)(F)F)cc1CN[C@H]1[C@@H]2COC[C@@H]2N[C@H]1c1ccccc1` (racemic), for which the inhibition in vivo at 1 mg/kg with Cavia porcellus [1] is 10%. For the same compound, the IC50 on Substance-P receptor was 0.22 nM; in test [4], greater than 1000 nM. Moreover, the ED50 in the test filed under Cavia porcellus [2] was determined as 1 mg/kg. The inhibition in vivo at 10 mg/kg in the test on Cavia porcellus [3] came out at 94%.

With `COc1ccccc1CN[C@H]1[C@@H]2CCC[C@@H]2N[C@H]1c1ccccc1` (racemic), the results for the half-inhibitory concentration (IC50) (on Substance-P receptor; in test [4]) were 3.4 nM and greater than 1000 nM, respectively.

The term inhibition in vivo denotes the change of the read-out against control, counted positive when it falls. Broadly, the IC50 is the concentration that inhibits the measured activity by half. One may read the ED50 as the midpoint of the dose-response relation.

These data come from ChEMBL document CHEMBL1138287, “Stereoselective synthesis of a novel 2-aza-7-oxabicyclo[3.3.0]octane as neurokinin-1 receptor antagonist” (Bioorg Med Chem Lett, 2007).
